Data taken from the NIST ThermoML archive (doi:10.1016/j.jct.2008.12.005).
Numbers after ± are expanded uncertainties.

Assay: activity coefficient (dimensionless); of the first substance listed, at infinite dilution; xn = mol fraction of the nth substance listed
Details: 101 kPa, Liquid, Chromatography, x1 = 0

SMILES: CCCO [propan-1-ol] + CC[S+](CC)CC.O=S(=O)([N-]S(=O)(=O)C(F)(F)F)C(F)(F)F
- activity coefficient (308.15 K): 2.49 ± 0.17
- activity coefficient (318.15 K): 2.24 ± 0.15
- activity coefficient (328.15 K): 2.04 ± 0.14
- activity coefficient (338.15 K): 1.85 ± 0.12
- activity coefficient (348.15 K): 1.7 ± 0.11
- activity coefficient (358.15 K): 1.57 ± 0.1
- activity coefficient (368.15 K): 1.46 ± 0.1

SMILES: C1CCOC1 [tetrahydrofuran] + CC[S+](CC)CC.O=S(=O)([N-]S(=O)(=O)C(F)(F)F)C(F)(F)F
- activity coefficient (298.15 K): 0.788 ± 0.051
- activity coefficient (308.15 K): 0.803 ± 0.052
- activity coefficient (318.15 K): 0.82 ± 0.053
- activity coefficient (328.15 K): 0.834 ± 0.054
- activity coefficient (338.15 K): 0.846 ± 0.054
- activity coefficient (348.15 K): 0.859 ± 0.055
- activity coefficient (358.15 K): 0.872 ± 0.056
- activity coefficient (368.15 K): 0.885 ± 0.056

SMILES: c1ccsc1 [thiophene] + CC[S+](CC)CC.O=S(=O)([N-]S(=O)(=O)C(F)(F)F)C(F)(F)F
- activity coefficient (298.15 K): 0.926 ± 0.059
- activity coefficient (308.15 K): 0.935 ± 0.059
- activity coefficient (318.15 K): 0.943 ± 0.059
- activity coefficient (328.15 K): 0.951 ± 0.06
- activity coefficient (338.15 K): 0.958 ± 0.06
- activity coefficient (348.15 K): 0.965 ± 0.061
- activity coefficient (358.15 K): 0.971 ± 0.061
- activity coefficient (368.15 K): 0.977 ± 0.061

SMILES: Cc1ccccc1 [toluene] + CC[S+](CC)CC.O=S(=O)([N-]S(=O)(=O)C(F)(F)F)C(F)(F)F
- activity coefficient (298.15 K): 1.54 ± 0.1
- activity coefficient (308.15 K): 1.56 ± 0.1
- activity coefficient (318.15 K): 1.58 ± 0.1
- activity coefficient (328.15 K): 1.6 ± 0.11
- activity coefficient (338.15 K): 1.62 ± 0.11
- activity coefficient (348.15 K): 1.63 ± 0.11
- activity coefficient (358.15 K): 1.65 ± 0.11
- activity coefficient (368.15 K): 1.66 ± 0.11

SMILES: O [water] + CC[S+](CC)CC.O=S(=O)([N-]S(=O)(=O)C(F)(F)F)C(F)(F)F
- activity coefficient (308.15 K): 3.91 ± 0.27
- activity coefficient (318.15 K): 3.39 ± 0.23
- activity coefficient (328.15 K): 2.97 ± 0.2
- activity coefficient (338.15 K): 2.63 ± 0.18
- activity coefficient (348.15 K): 2.33 ± 0.16
- activity coefficient (358.15 K): 2.08 ± 0.14
- activity coefficient (368.15 K): 1.88 ± 0.13
